Several values for one entry are separate records, joined by “and”; a condition that tells them apart may be missing. Equal entries are not always repeated.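 Protocol summary: plate cells (96-well), add compound at 5 concentrations, incubate 48 h, interpolate endpoints linearly. GI50 = concentration required for 50% inhibition of growth. TGI: concentration producing complete growth inhibition.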
Legend:
Test in all cases: DTP human tumour cell line panel, 48 h
[1] = system: ACHN renal
[2] = system: CAKI-1 renal
[3] = system: CCRF-CEM leukemia
[4] = system: HOP-92 NSCLC
[5] = system: NCI-H23 lung
[6] = system: OVCAR-5 ovarian
[7] = system: SF-295 CNS
[8] = system: SK-MEL-5 melanoma
[9] = system: SK-OV-3 ovarian
[10] = system: UACC-62 melanoma

Compound	GI50 [1] [µM]	TGI [1]	GI50 [2] [µM]	TGI [2]	GI50 [3] [µM]	TGI [3]	GI50 [4] [µM]	TGI [4] [µM]	GI50 [5] [µM]	TGI [5]	GI50 [6] [µM]	TGI [6] [µM]	GI50 [7] [µM]	TGI [7] [µM]	GI50 [8] [µM]	TGI [8]	GI50 [9] [µM]	TGI [9] [µM]	GI50 [10] [µM]	TGI [10]
O=C(NCCOCCOCCNc1cccc2c1C(=O)N(C1CCCNC1=O)C2=O)c1cc2c(o1)C(=O)c1ccccc1C2=O (stereo unspecified)	2.29	6.5 µM	2.75	9.3 µM	4.48	> 100 µM	3.31	13.6	0.313	1.79 µM	1.77	3.19	1.7	3.13	0.707	1.99 µM	2.87	7.93	1.37	2.99 µM
O=[N+]([O-])/C=C\c1ccc(Cl)c(Cl)c1	3.47	13.3 µM	1.32	2.88 µM	–	4.75 µM	1.87	5.01	1.63	3.31 µM	8.89	31.3	1.83	3.73	3.57	14 µM	14.4	27.4	10.9	30.1 µM
COc1ccc2ccc3c(c2c1)CN1CCc2cc(OC)c(OC)cc2C1C3 (stereo unspecified)	–	> 100 µM	–	> 100 µM	–	> 100 µM	–	> 100	–	> 100 µM	–	> 100	–	> 100	–	> 100 µM	–	> 100	–	> 100 µM
COc1cnc2cc(C(=O)O)c3c([N+](=O)[O-])cccc3c2c1	–	> 100 µM	–	> 100 µM	–	> 100 µM	–	> 100	–	> 100 µM	–	> 100	–	> 100	–	> 100 µM	–	> 100	–	> 100 µM
CCCCCCCCCC[C@@H](O)[C@@H]1CC[C@H]([C@H]2CC[C@@H]([C@@H](O)CCCCCCCCCC[C@H]3CC(CC(C)=O)C(=O)O3)O2)O1 (stereo partly specified)	–	–	–	75.8 µM	–	33.4 µM	–	33.4	–	16.4 µM	–	74.3	–	–	–	10.7 µM	–	34.1	–	32.2 µM
O=C1c2c(c3c4ccccc4n(CCCCCCBr)c3c3[nH]c4ccccc4c23)C(=O)N1O	2.61	11.1 µM	2.86	9.5 µM	2.14	5.53 µM	2.22	6.7	2.23	7.09 µM	3.22	17.4	2.75	9.01	1.48	2.8 µM	2.87	10.4	1.69	4.42 µM
CC1OC(O[C@H]2C[C@@H](O)[C@]3(CO)[C@H]4[C@H](O)C[C@]5(C)[C@@H](C6=CC(=O)OC6)CC[C@]5(O)[C@@H]4CC[C@]3(O)C2)C(O)C(O)C1O (stereo partly specified)	20.2	35.5 µM	17.7	33.9 µM	–	52.5 µM	24.4	57.6	21.5	41.8 µM	35.7	> 100	19.3	35.3	17.7	35.2 µM	18.8	33.8	17.6	32.4 µM
Cc1cc2c(cc1C)[n+](=O)c(C(=O)CC(=O)C(=O)Nc1c(C(C)C)cccc1C(C)C)c(C)n2[O-]	–	> 100 µM	–	> 100 µM	–	> 100 µM	–	> 100	–	> 100 µM	–	> 100	–	> 100	–	> 100 µM	–	> 100	–	> 100 µM
CCOC(=O)/C=C(/C(=O)OCC)n1cc(Cl)c(=O)n(CC(=O)OCC)c1=O	2.55	7.35 µM and 6.22 µM	–	7.64 µM and 5.5 µM	2.12	1.13 µM and 5.65 µM	–	9.3	20	10.8 µM and 41.5 µM	36.6	–	> 100	> 100	–	9.28 µM and 30.6 µM	41.4	> 100	18.6	8.88 µM and 33.6 µM
CNC(=O)OCc1c(COC(=O)NC)c(-c2ccc(Cl)c(Cl)c2)n2c1SCC2	–	17.6 µM	–	23.9 µM	–	64.9 µM	–	17.6	–	40.5 µM	–	10.8	–	35.7	–	25.1 µM	–	28.1	–	8.94 µM
CN1CCN(Cc2ccc(NC(=O)c3cncc(C#Cc4cnc(N)c5ccc(C#N)cc45)c3)cc2C(F)(F)F)CC1	0.0237	0.526 µM	0.0175	0.206 µM	0.0803	2.05 µM	0.0244	0.344	0.172	1.27 µM	0.211	0.986	0.214	9.95	0.176	0.696 µM	0.0212	0.599	0.0279	0.422 µM
CCc1c(Oc2ccc(C(C)=O)cc2)c2ccccc2[nH]c1=O	16.7	63.5 µM	15.8	53.3 µM	–	> 43.6 µM	1.67	11.7	18.7	59.5 µM	31.8	> 100	16.3	> 69.4	13	27.5 µM	21	74.5	3.74	16.5 µM
O=C1CNCCCN2CCN(CCCNCC(=O)Nc3ccc(cc3)S(=O)(=O)c3ccc(cc3)NC(=O)CNCCCN3CCN(CCCNCC(=O)Nc4ccc(cc4)S(=O)(=O)c4ccc(cc4)N1)CC3)CC2	–	> 61.5 µM	–	99.2 µM	–	> 100 µM	–	60.6	–	> 76.9 µM	–	> 77.2	–	> 62.6	–	> 73 µM	–	> 100	–	> 67.5 µM
CC1CCC2(C(=O)O)CCC3(C)C(=CCC4C5(C)CC(O)C(O)C(C)(CO)C5C(O)CC43C)C2C1C (stereo unspecified)	–	> 100 µM	–	> 100 µM	–	53.3 µM	–	46.3	–	> 100 µM	–	> 100	–	> 100	–	87.2 µM	–	> 100	–	47.5 µM
Cn1cc(-c2cnc3ccc(NC(=O)Nc4ccc(F)c(Br)c4)cc3n2)cn1	1.81	4.31 µM	2.05	5.57 µM	2.06	6.21 µM	1.6	4.41	1.75	3.91 µM	1.94	4.53	1.89	3.73	1.63	3.03 µM	2.24	5.99	1.68	3.74 µM
